Usually EC50 stands for the concentration that produces a half-maximal response.

The values below come from patent US10604508B2, “2,3-dihydro-isoindole-1-one derivative as BTK kinase suppressant, and pharmaceutical composition including same” (CrystalGenomics, Inc., priority 2012, dated 2020).

Common to all, as to assay type: cell-based
One assay has as its system H9. Kind of assay: MTS anti-proliferation assay, H9. Particulars: human lymphoma cell line, 48 hours. The method, then:
(§1) MTS assay was performed to evaluate the anti-proliferative activities of the inventive compounds via inhibition on extracellular signal-regulated kinase (Barltrop, J. A. et al., (1991) 5-(3-carboxymethoxyphenyl)-2-(4,5-dimethylthiazoly)-3-(4-sulfophenyl) tetrazolium, inner salt (MTS) and related analog of 3-(4,5-dimethylthiazolyl)-2,5,-diphenyltetrazolium bromide (MTT) reducing to purple water soluble formazans as cell-viability indicators. Bioorg. Med Chem. Lett. 1, 611-4; Cory, A. H. et al., (1991) Use of an aqueous soluble tertrazolium/formazan assay for cell growth assays in culture. Cancer Comm. 3, 207-12).
(§2) Human lymphoma cell lines Jeko-1 (ATCC), Mino (ATCC), H9 (Korean Cell Line Bank) and SR (ATCC), and human leukemia cell lines MV4-11 (ATCC), Molm-13 (DSMZ) and Ku812 (ATCC) were used for the test according to the procedure shown below.
(§3) Each of Jeko-1, Mino, H9, SR, MV4-11, Molm-13 and Ku812 cells were transferred into 96-well plates containing RPMI1640 medium (GIBCO, Invitrogen) supplemented with 10% FBS at a density of 10,000 cells/well, and then incubated for 24 hours under conditions of 37° C. and 5% CO2. The wells were treated with each of 0.2, 1, 5, 25 and 100 μM, of the test compounds. The well was treated with DMSO in an amount of 0.08 wt %, which is the same amount as in the test compounds, which was used as a control. The resulting cells were incubated for 48 hours.
(§4) MTS assays are commercially available and include the Promega CellTiter 96® Aqueous Non-Radioactive Cell Proliferation Assay. MTS assays were performed in order to evaluate cell viability of the test compounds. 20 μL of a mixed solution of 3-(4,5-dimethylthiazol-2-yl)-5-(3-carboxymethoxyphenyl)-2-(4-sulfophenyl)-2H-tetrazolium, inner salt (“MTS”) and phenazine methosulfate (PMS) was added to each well, and then incubated for 2 hours at 37° C. Then absorbance of the samples was read at 490 nm. The anti-proliferation activity level was calculated based on absorbance of the test compounds against that of the untreated control group. The EC50 (μM) values, in which test compounds reduce the growth of cancer cells by 50% were calculated.
For orientation: Tetrazolium assays rely on reduction of a dye to a coloured formazan, in cell work by metabolically active cells.

Another assay relates to Jeko-1. Nature of the assay: MTS anti-proliferation assay, Jeko-1. The note with it: human lymphoma cell line, 48 hours. On the procedure:
as §1, §2, §3, §4

The subject of the next assay is SR. Nature of the assay: MTS anti-proliferation assay, SR. Particulars: human lymphoma cell line, 48 hours. On the procedure: as §1, §2, §3, §4
The next assay concerns RBL-2H3 cell line. Nature of the assay: Histamine Release Assay. The note with it: Rattus norvegicus; RBL-2H3 cells, 500 ng/mL monoclonal anti-DNP, 24 hours. The method, then: Histamine release assays were performed with reference to the method disclosed in the article, FEBS Lett. 2002 Sep. 11; 527 (1-3):274-8. Silencing of Bruton's tyrosine kinase (Btk) using short interfering RNA duplexes (siRNA). Heinonen J E, Smith C I, Nore B F, and the amount of histamine was measured by an enzyme immunoassay.
The RBL-2H3 cell line, purchased from KCLB (Korean Cell Line Bank), was grown in a DMEM medium supplemented with 10% (v/v) FBS at 37° C. in a 5% CO2 incubator for 72 hours. The cells were transferred into 96-well plates at a density of 10,000 cells/well, and cultured at 37° C. in the 5% CO2 incubator for 24 hours.
The cells were treated with 500 ng/mL of monoclonal anti-DNP (sigma) and each of 0.001, 0.01, 0.1, 1.0 and 10 μM of the test compound in 100% (v/v) dimethyl sulfoxide (DMSO). The cells were treated only with 100% (v/v) DMSO, which was used as a control. The treated samples were cultured at 37° C. in the 5% CO2 incubator for 24 hours. Then, histamine release was measured according to manufacturer's instructions (EIA histamine kit, immunotech). Each well was treated with 50 μL of a histamine release buffer, and allowed to react for 30 minutes at 37° C. Upon completion of the reaction, 100 μL of a sample from each well was transferred to a new plate, and then was thoroughly mixed with 25 μL of an acetylation buffer and 25 μL of an acetylation reagent. 50 μL of the acetylation sample thus prepared was transferred to a plate coated with an antibody, mixed with 200 μL of histamine alkaline phosphatase conjugate, and then allowed to react for 18 hours at 4° C. Once the reaction is completed, the sample from the plate is removed, and then 200 μL of a wash buffer was added to wash three times. 200 μL of a substrate was added thereto, and the mixture was allowed to react at room temperature for 30 minutes. The reaction was terminated by adding 50 μL of a stop solution, and absorbance of the samples was read at 406 nm using Benchmark Plus (Biorad). The histamine release level was calculated based on absorbance of the test group against that of the control group. The EC50 (μM) values, in which test compounds reduce the histamine release by 50%, were determined by using Microsoft Excel graphic program.

The subject of a further assay is Mino. Kind of assay: MTS anti-proliferation assay, Mino. Particulars: human lymphoma cell line, 48 hours. The method, then: as §1
(§5) Human lymphoma cell lines Jeko-1 (ATCC), Mino (ATCC), H9 (Korean Cell Line Bank) and SR (ATCC), and human leukemia cell lines MV4-11 (ATCC), Molm-13 (DSMZ) and Ku812 (ATCC) were used for the test according to the procedure shown below. […]
(§6) MTS assays are commercially available and include the Promega CellTiter 96® Aqueous Non-Radioactive Cell Proliferation Assay. […] Then absorbance of the samples was read at 490 nm. The anti-proliferation activity level was calculated based on absorbance of the test compounds against that of the untreated control group. […]

In a further assay the test system is Molm-13. Kind of assay: MTS anti-proliferation assay, Molm-13. Particulars: human leukemia cell line, 48 hours. The method, then: as §1, §5, §6
The next assay deals with MV4-11. Kind of assay: MTS anti-proliferation assay, MV4-11. The note with it: human leukemia cell line, 48 hours. On the procedure:
as §1, §5, §6

The subject of another assay is Ku812. Kind of assay: MTS anti-proliferation assay, Ku812. Particulars: human leukemia cell line, 48 hours. On the procedure:
as §1, §5, §6

Molecules are shown by their SMILES.

Regarding `Cc1cnc(-c2ccc(-c3ccc(NC(=O)Nc4c(F)ccc(F)c4F)cc3F)c3c2C(=O)NC3)[nH]1` [Compound 12, 1-{3-fluoro-4-[7-(5-methyl-1H-imidazol-2-yl)-1-oxo-2,3-dihydro-1H-isoindol-4-yl]-phenyl}-3-(2,3,6-trifluoro-phenyl)-urea], the EC50 is 40 nM with H9, 150 nM in the assay with Jeko-1, 20 nM with SR and 300 nM in the assay on RBL-2H3 cell line.

On to `Cc1cnc(-c2ccc(-c3ccc(NC(=O)Nc4c(F)ccc(Cl)c4F)cc3F)c3c2C(=O)NC3)[nH]1` [Compound 17, 1-(3-chloro-2,6-difluorophenyl)-3-(3-fluoro-4-(7-(5-methyl-1H-imidazol-2-yl)-1-oxoisoindolin-4-yl)phenyl)urea], for which the EC50 came to 20 nM in the assay with H9; 30 nM in the assay on Jeko-1; 18 nM with Mino; 12 nM with Molm-13; 4 nM in the assay with MV4-11; 190 nM in the assay on Ku812. In addition, the concentration giving a half-maximal response (EC50) with SR stood at 25 nM; in the assay on RBL-2H3 cell line it was 40 nM.

Regarding `Cc1cnc(-c2ccc(-c3ccc(NC(=O)Nc4ccc(C#N)c(F)c4)cc3F)c3c2C(=O)NC3)[nH]1` [Compound 15, 1-(4-cyano-3-fluorophenyl)-3-(3-fluoro-4-(7-(5-methyl-1H-imidazol-2-yl)-1-oxoisoindolin-4-yl)phenyl)urea], the concentration for a half-maximal effect (EC50) with H9 stood at 190 nM; with Jeko-1, 100 nM; in the assay on SR it was 150 nM; in the assay on RBL-2H3 cell line, 220 nM.

Regarding `Cc1cnc(-c2ccc(-c3ccc(NC(=O)Nc4c(F)c(F)c(F)c(F)c4F)cc3F)c3c2C(=O)NC3)[nH]1` [Compound 9, 1-{3-fluoro-4-[7-(5-methyl-1H-imidazol-2-yl)-1-oxo-2,3-dihydro-1H-isoindol-4-yl]-phenyl}-3-pentafluorophenyl-urea], the EC50 was 6 nM in the assay with H9, 30 nM with Jeko-1, 18 nM in the assay with SR and 350 nM in the assay with RBL-2H3 cell line.

For `Cc1cnc(-c2ccc(-c3ccc(NC(=O)Nc4ccc(F)c(F)c4)cc3F)c3c2C(=O)NC3)[nH]1` [Compound 14, 1-(3,4-difluoro-phenyl)-3-{3-fluoro-4-[7-(5-methyl-1H-imidazol-2-yl)-1-oxo-2,3-dihydro-1H-isoindol-4-yl]-phenyl}-urea], the half-maximal effective concentration (EC50) in the assay on H9 was determined as 20 nM; in the assay on Jeko-1, 30 nM; in the assay on SR, 18 nM; in the assay on RBL-2H3 cell line it was 200 nM.

As to `Cc1cnc(-c2ccc(-c3ccc(NC(=O)Nc4c(F)ccc(F)c4Cl)cc3F)c3c2C(=O)NC3)[nH]1` [Compound 18, 1-(2-chloro-3,6-difluorophenyl)-3-(3-fluoro-4-(7-(5-methyl-1H-imidazol-2-yl)-1-oxoisoindolin-4-yl)phenyl)urea], the half-maximal effective concentration (EC50) came to 20 nM in the assay on H9, 30 nM in the assay on Jeko-1, 20 nM in the assay on SR and 300 nM with RBL-2H3 cell line.

As to `Cc1cnc(-c2ccc(-c3ccc(NC(=O)Nc4c(F)cccc4Cl)cc3F)c3c2C(=O)NC3)[nH]1` [Compound 4, 1-(2-chloro-6-fluoro-phenyl)-3-{3-fluoro-4-[7-(5-methyl-1H-imidazol-2-yl)-1-oxo-2,3-dihydro-1H-isoindol-4-yl]-phenyl}-urea], the EC50 with H9 is 30 nM; in the assay with Jeko-1 it was 100 nM; in the assay on SR it was 30 nM; in the assay with RBL-2H3 cell line it was 250 nM.

Take `Cc1cnc(-c2ccc(-c3ccc(NC(=O)Nc4c(F)cc(F)cc4F)cc3F)c3c2C(=O)NC3)[nH]1` [Compound 7, 1-{3-fluoro-4-[7-(5-methyl-1H-imidazol-2-yl)-1-oxo-2,3-dihydro-1H-isoindol-4-yl]-phenyl}-3-(2,4,6-trifluoro-phenyl)-urea]: the concentration giving a half-maximal response (EC50) in the assay with H9 came out at 7 nM; in the assay with Jeko-1, 30 nM; in the assay on Mino it was 18 nM; in the assay with Molm-13, 3 nM; in the assay on MV4-11, 2 nM; in the assay with Ku812, 600 nM. For the same compound, the EC50 with SR stood at 15 nM; in the assay with RBL-2H3 cell line, 220 nM.

As to `Cc1cnc(-c2ccc(-c3ccc(NC(=O)Nc4c(F)cccc4F)cc3F)c3c2C(=O)NC3)[nH]1` [Compound 3, 1-(2,6-difluoro-phenyl)-3-{3-fluoro-4-[7-(5-methyl-1H-imidazol-2-yl)-1-oxo-2,3-dihydro-1H-isoindol-4-yl]-phenyl}-urea], the concentration for a half-maximal effect (EC50) with H9 worked out at 30 nM; in the assay with Jeko-1, 100 nM; in the assay on SR it was 100 nM; with RBL-2H3 cell line it was 450 nM.

Turning to `Cc1cnc(-c2ccc(-c3ccc(NC(=O)Nc4c(F)cc(Cl)cc4F)cc3F)c3c2C(=O)NC3)[nH]1` [Compound 19, 1-(4-chloro-2,6-difluoro-phenyl)-3-{3-fluoro-4-[7-(5-methyl-1H-imidazol-2-yl)-1-oxo-2,3-dihydro-1H-isoindol-4-yl]-phenyl}-urea], the half-maximal effective concentration (EC50) in the assay on H9 is 40 nM; in the assay with Jeko-1, 30 nM; with SR, 20 nM; in the assay with RBL-2H3 cell line, 300 nM.

As to `Cc1cnc(-c2ccc(-c3ccc(NC(=O)Nc4c(F)c(F)cc(F)c4F)cc3F)c3c2C(=O)NC3)[nH]1` [Compound 20, 1-{3-fluoro-4-[7-(5-methyl-1H-imidazol-2-yl)-1-oxo-2,3-dihydro-1H-isoindol-4-yl]-phenyl}-3-(2,3,5,6-tetrafluoro-phenyl)-urea], the EC50 in the assay on H9 worked out at 10 nM; with Jeko-1 it was 30 nM; in the assay with SR it was 17 nM; with RBL-2H3 cell line, 300 nM.
